Values joined by “and” are separate entries in the source; they are usually repeats but may differ in a detail not shown here. Equal values may be shown once. Read-outs that look alike come from different tables or passages of the source.
How the values were obtained:
[1] = target: T1, human α7 nAChR (Homo sapiens, UniProt P36544); assay: α7 nAChR direct activation (agonist test), two-electrode voltage-clamp electrophysiology in Xenopus oocytes; assay type: cell-based; conditions: for activation at 200 µM: read-out: α7 nAChR %Activation
T1 construct: expressed in transfected cells; host or cells: Xenopus laevis oocytes (cRNA injection)
T1 sequence (P36544 23-502): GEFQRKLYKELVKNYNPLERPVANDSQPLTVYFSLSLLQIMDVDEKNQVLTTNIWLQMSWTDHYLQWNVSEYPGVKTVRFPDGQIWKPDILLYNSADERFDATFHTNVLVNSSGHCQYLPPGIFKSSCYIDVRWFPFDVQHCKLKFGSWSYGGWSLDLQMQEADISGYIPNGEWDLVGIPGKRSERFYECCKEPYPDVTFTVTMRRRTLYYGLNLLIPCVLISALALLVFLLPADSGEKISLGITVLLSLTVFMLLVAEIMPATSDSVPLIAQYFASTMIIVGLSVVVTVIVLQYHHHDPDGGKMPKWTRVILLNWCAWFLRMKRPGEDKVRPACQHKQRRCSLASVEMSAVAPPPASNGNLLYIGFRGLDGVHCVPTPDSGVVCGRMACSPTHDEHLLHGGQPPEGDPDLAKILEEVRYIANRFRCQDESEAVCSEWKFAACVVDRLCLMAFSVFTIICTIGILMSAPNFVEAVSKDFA
Description: (§1) Compounds were tested for direct activation of the α7 nAChR in a 0.2–200 µM concentration range. Compounds displaying less than 1% direct activation were further evaluated at 100 µM for their ability to alter currents evoked by 30 µM ACh.
(§2) Xenopus laevis oocytes were obtained as described previously, briefly, ovary lobes were removed by surgical incision, sliced into small pieces and defolliculated by collagenase treatment. […] Stage V and VI oocytes were injected with a total of ~25 ng of cRNA encoding human α7 nAChR with RIC3 (in 5:1 ratio), a protein enhancing the expression of the receptor. Injected oocytes were incubated for 3–5 days at 18 °C in a saline solution (96 mM NaCl, 2 mM KCl, 1 mM MgCl2, 1.8 mM CaCl2, 5 mM HEPES (hemisodium, pH 7.4)) supplemented with 2.5 mM sodium pyruvate, 0.5 mM theophylline, and 50 µM gentamycin.
(§3) Electrophysiological recordings from Xenopus laevis oocytes were performed using the two-electrode voltage-clamp technique as described previously. Briefly, oocytes were placed in a custom-built recording chamber and continuously perfused with a saline solution. The saline solution contained 96 mM NaCl, 2 mM KCl, 1 mM MgCl2, 1.8 mM CaCl2, 5 mM HEPES (hemisodium, pH 7.4). Pipettes were backfilled with 3 M KCl and open-pipette resistances ranged from 0.3 to 1.5 MΩ when submerged in the saline solution. Oocytes were voltage clamped at a holding potential of −60 mV using an Axon Geneclamp 500B amplifier (Molecular Devices, LLC, San Jose, CA, USA). Rapid solution exchange in the oocyte vicinity (order of a few seconds) was ensured by application through a 1.5 mm diameter capillary tube placed approximately 2 mm from the oocyte as described previously. The solution flow rate through the capillary was 2.0 mL/min. […] Thereafter, test compounds in increasing concentration were applied (25 s), the maximal tested concentration was 200 µM. A wash period of at least 2 min was kept between each application. […] In these experiments, 10 and 100 µM concentration of a test compound was co-applied with 30 µM ACh. Peak current amplitudes were normalized with respect to the amplitude of current elicited by 3 mM or 30 µM ACh for the agonist and antagonist test, respectively. All experiments were conducted at least in triplicate.
(§4) Data analysis was performed as reported previously. […] During analysis, traces were baseline subtracted and responses to individual applications quantified as peak-current amplitudes. Statistical calculations were performed using GraphPad Prism 7 (GraphPad Software, GraphPad, San Diego, CA, USA). Activation of the α7 nAChR was calculated as a percentage of Emax response to ACh. For evaluation of the inhibitory activity, the percentage of remaining peak-current amplitudes relative to that of the AChcontrol (EC20) application was calculated. AChE inhibition data were analyzed using GraphPad Prism 7. Absorption readings from the AChE inhibition assay were plotted versus time and linear regression was performed. […] Data were fitted with the slope set to 1 and remaining current amplitude at infinitely high compound concentrations set to 0.

[2] = target: T1, human α7 nAChR; assay: α7 nAChR inhibition of ACh-evoked currents (antagonist test), two-electrode voltage-clamp electrophysiology in Xenopus oocytes; assay type: cell-based; conditions: -60 mV
Description: as §1, §2, §3, §4

[3] = target: T2, human recombinant AChE (Homo sapiens, UniProt P22303); assay: biochemical; conditions: for inhibition at 200 µM: compound soluble in MeOH; for AChE %Inhibition of supernatant (MeOH): poorly soluble compound, methanol supernatant tested, nominal 200 µM
T2 construct: purchased Sigma-Aldrich Co. LLC C1682
T2 sequence (P22303 32-614): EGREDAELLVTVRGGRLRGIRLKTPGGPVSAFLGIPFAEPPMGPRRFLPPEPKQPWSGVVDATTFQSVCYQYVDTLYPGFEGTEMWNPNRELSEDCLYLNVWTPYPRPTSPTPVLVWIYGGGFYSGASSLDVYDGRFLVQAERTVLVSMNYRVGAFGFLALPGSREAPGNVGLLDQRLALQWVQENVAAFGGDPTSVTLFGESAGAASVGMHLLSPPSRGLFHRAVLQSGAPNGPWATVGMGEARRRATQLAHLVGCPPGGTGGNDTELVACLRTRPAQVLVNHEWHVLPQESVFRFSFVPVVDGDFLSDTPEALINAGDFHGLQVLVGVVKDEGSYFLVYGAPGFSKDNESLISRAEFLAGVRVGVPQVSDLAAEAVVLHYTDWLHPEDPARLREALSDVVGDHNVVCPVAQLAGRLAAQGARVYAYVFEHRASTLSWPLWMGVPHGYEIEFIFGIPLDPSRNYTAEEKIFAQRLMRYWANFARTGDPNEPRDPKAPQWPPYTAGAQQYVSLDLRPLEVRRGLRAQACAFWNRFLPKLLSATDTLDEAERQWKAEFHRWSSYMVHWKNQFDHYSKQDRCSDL
Description: For five poorly soluble compounds, the methanol supernatants were tested. Ellman’s colorimetric analysis is based on the breakdown of acetylthiocholine (ATCI) by AChE to thiocholine and acetic acid. Ellman’s reagent in turn reacts with the thiol group of thiocholine resulting in a yellow color indicating the extent of enzymatic activity. […] In vitro AChE inhibitory activity was studied using the colorimetric method of Ellman using human recombinant AChE enzyme. To a 96-well microplate, test solutions were applied along with 1 mg/mL bovine serum albumin, 0.5 mM 5,5-dithiobis-(2-nitro-benzoic acid), and 0.5 mM acetylthiocholine iodide. […] Experiments were conducted in triplicate.
as §4

[4] = tested on: α7 nAChR; conditions: cited from earlier work
[5] = 200 µM, normalized to 3 mM ACh response, -60 mV
[6] = 100 µM compound co-applied with 30 µM ACh, read-out: α7 nAChR %Inhibition
[7] = five to eight concentrations, read-out: AChE IC50

Row | Compound | activation at 200 µM [1, 5] [%] | inhibition at 100 µM [2, 6] [%] | inhibition at 200 µM [3] [%] | IC50 [3, 7] [µM] | other results
1 | CN(C)Cc1ccc(-c2ccc(N(C)C)nc2)nc1 [Compound 6] | 0.4 | 47.2 | 76.1 | 58.5 | 
2 | c1cc(-c2ccc(-c3ccc(CN4CCCC4)cn3)cc2)n[nH]1 [Compound 8] | 0.3 | 59 |  |  | AChE %Inhibition of supernatant (MeOH) [3]: 100%
3 | O[C@@H]1c2ccc(-c3cccnc3)cc2OC[C@H]1N1CCCC1 [Compound 9] | 1 | 66.7 |  |  | AChE %Inhibition of supernatant (MeOH) [3]: 45.9 ± 3.8%
4 | O=C(Nc1cccc(CN2CCCCC2)c1)c1ccccc1F [Compound 10] | 0.3 | 85 | 90.8 | 11.3 | 
5 | O=C(Nc1ccc(CN2CCCCC2)cc1)c1ccc(Cl)cc1 [Compound 11] | 0.7 | 73.3 |  |  | AChE %Inhibition of supernatant (MeOH) [3]: 100%
6 | O=c1[nH]c2ccccc2c(=O)n1-c1ccc(CN2CCCC2)cc1 [Compound 12] | 0.3 | 81.7 |  |  | AChE %Inhibition of supernatant (MeOH) [3]: 63.7 ± 4.4%
7 | Cc1cccc(NC(=O)c2ccc(CN3CCCCCC3)cc2)c1C [Compound 13] | 0.7 | 68 | 82.5 | 30.2 | 
8 | CC(=O)c1cccc(NC(=O)c2ccc(CN3CCCCC3)cc2)c1 [Compound 14] | 0.3 | 60 | 100 | 1.1 | 
9 | O=C(Nc1cccc(CN2CCCC2)c1)C1=Cc2cc(Cl)ccc2OC1 [Compound 16] | 1 | 90.7 |  |  | AChE %Inhibition of supernatant (MeOH) [3]: 100%
10 | CN(C(=O)Cc1ccsc1)[C@H]1CCC[C@H](N2CCCC2)[C@H]1O [Compound 17] |  |  | 22.9 |  | 
11 | CC(=O)c1cccc(NC(=O)c2ccc(CN3CCCCCC3)cc2)c1 [Compound 18] | 0.7 | 68.7 | 91.6 | 17.9 | 
12 | C[C@H]1CCCN(Cc2ccc(NC(=O)CCc3ccc(C#N)cc3)cc2)C1 [Compound 20] | 0.3 | 94.3 | 86 | 33.5 | 
13 | Nc1nc(-c2ccsc2)cc(N(Cc2ccccn2)Cc2ccccn2)n1 [Compound 44, N4,N4-bis[(pyridin-2-yl)methyl]-6-(thiophen-3-yl)pyrimidine-2,4-diamine] |  |  |  |  | α7-pEC50 [4]: 6.3
14 | Cc1nnc2ncc(-c3ccc(C(C)N(C)C)cc3)cn12 (centres unmarked) [Ýmir-2 (7), N,N-dimethyl-1-(4-(3-methyl-[1,2,4]triazolo[4,3-a]pyrimidin-6-yl)phenyl)ethan-1-amine] |  |  | 98.4 | 2.58 | α7 nAChR %Activation [1, 5]: 7.0% and 7.0 ± 0.9%; activation at 200 µM [1]: 7 ± 0.9%
15 | Cc1ccc2cc(NC(=O)NCCN3CCCC3)ccc2n1 [Ýmir-10 (15)] |  |  | 66.6 | 115 | α7 nAChR %Activation [1, 5]: 2.3% and 2.3 ± 0.4%; activation at 200 µM [1]: 2.3 ± 0.4%
16 | Cc1cc(F)ccc1S(=O)(=O)NCc1ccc(CN2CCCC2)cc1 [Ýmir-14 (19)] | 0.7 | 96 | 100 | 1.32 | 
17 | O=C(Nc1nc(CN2CCCCC2)cs1)c1cc(O)nc2ccccc12 [Ýmir-16 (21)] | 0.3 |  | 87.7 | 7.76 | α7 nAChR %Inhibition ([2]; 100 µM compound co-applied with 30 µM ACh): 97.3 ± 1%; inhibition at 100 µM ([2]; read-out: α7 nAChR %Inhibition, 100 µM compound co-applied with 30 µM ACh): 97%; IC50 ([3]; read-out: AChE pIC50 ± SEM (converted)): 7.94 µM
